How the values were obtained:
ghrelin receptor = ghrelin receptor (Homo sapiens, UniProt Q92847); assay: Aequorin functional assay (ghrelin receptor), Example 3; type: cell-based; set-up: host or cells: CHO-K1 cells co-expressing Gα16 and mitochondrially targeted Aequorin; details: antagonist testing vs ghrelin at EC80 (3.7 nM)
Excerpt: The functional activity of compounds of the invention found to bind to the GHS-R1a receptor can be determined using the method described below. (LePoul, E.; et al. Adaptation of aequorin functional assay to high throughput screening. J. Biomol. Screen. 2002, 7, 57-65; Bednarek, M. A.; et al. Structure-function studies on the new growth hormone-releasing peptide ghrelin: minimal sequence of ghrelin necessary for activation of growth hormone secretagogue receptor 1a. J. Med. Chem. 2000, 43, 4370-4376; Palucki, B. L.; et al. Spiro(indoline-3,4′-piperidine) growth hormone secretagogues as ghrelin mimetics. Bioorg. Med. Chem. Lett. 2001, 11, 1955-1957).
Membranes were prepared using AequoScreen™ (EUROSCREEN, Belgium) cell lines expressing the human ghrelin receptor (cell line ES-410-A; receptor accession #60179). This cell line is constructed by transfection of the human ghrelin receptor into CHO-K1 cells co-expressing Gα16 and the mitochondrially targeted Aequorin (Ref #ES-WT-A5). • 1. Ghrelin (reference agonist; Bachem, #H-4864) • 2. Assay buffer: DMEM (Dulbecco's Modified Eagles Medium) containing 0.1% BSA (bovine serum albumin; pH 7.0. • 3. Coelenterazine (Molecular Probes, Leiden, The Netherlands)
Stock solutions of compounds (10 mM in 100% DMSO) were provided frozen on dry ice and stored at −20° C. prior to use. From the stock solution, mother solutions were made at a concentration of 500 μM 20-fold dilution in 26% DMSO. Assay plates were then prepared by appropriate dilution in DMEM medium containing 0.1% BSA. Under these conditions, the maximal final DMSO concentration in the assay was <0.6%.
AequoScreen™ cells were collected from culture plates with Ca^2+ and Mg^2+-free phosphate buffered saline (PBS) supplemented with 5 mM EDTA, pelleted for 2 minutes at 1000×g, re-suspended in DMEM-Ham's F12 containing 0.1% BSA at a density of 5×10^6 cells/ml and incubated overnight at room temperature in the presence of 5 μM coelenterazine. After loading, cells were diluted with assay buffer to a concentration of 5×10^5 cells/ml.
For agonist testing, 50 μl of the cell suspension was mixed with 50 μl of the appropriate concentration of test compound or ghrelin (reference agonist) in 96-well plates (duplicate samples). Ghrelin (reference agonist) is tested at several concentrations concurrently with the test compounds in order to validate the experiment. The emission of light resulting from receptor activation in response to ghrelin or test compounds was recorded using the Hamamatsu FDSS 6000 reader (Hamamatsu Photonics K.K., Japan).
For antagonist testing, an approximate EC80 concentration of ghrelin (i.e. 3.7 nM; 100 μL) was injected onto the cell suspension containing the test compounds (duplicate samples) 15-30 minutes after the end of agonist testing and the consequent emission of light resulting from receptor activation was measured as described in the paragraph above.
Results are expressed as Relative Light Units (RLU). […] For agonist testing, results for each concentration of test compound were expressed as percent activation relative to the signal induced by ghrelin at a concentration equal to the EC80 (i.e. 3.7 nM). EC50, Hill slope and % Emax values are reported.
For antagonist testing, results for each concentration of test compound were expressed as percent inhibition relative to the signal induced by ghrelin at a concentration equal to the EC80.

[1] = target: T1, human ghrelin receptor (hGHS-R1a) (Homo sapiens, UniProt Q92847); assay: Competitive radioligand binding assay (ghrelin receptor), [125I]-ghrelin, GHS-R/HEK 293 membranes; details: competition with [125I]-ghrelin
T1 construct: purchased PerkinElmer BioSignal #RBHGHSM, lot#1887; host or cells: HEK-293 cells, stably transfected; membranes
Experimental: The competitive binding assay at the human growth hormone secretagogue receptor (HGHS-R1a) was carried out analogously to assays described in the literature. (Bednarek M A et al. Structure-function studies on the new growth hormone-releasing peptide ghrelin: minimal sequence of ghrelin necessary for activation of growth hormone secretagogue receptor 1a; J. Med. Chem. 2000, 43, 4370-4376; Palucki, B. L. et al. Spiro(indoline-3,4′-piperidine) growth hormone secretagogues as ghrelin mimetics; Bioorg. Med. Chem. Lett. […], 11, 1955-1957).
Membranes (GHS-R/HEK 293) were prepared from HEK-293 cells stably transfected with the human ghrelin receptor (hGHS-R1a). These membranes were provided by PerkinElmer BioSignal (#RBHGHSM, lot#1887) and utilized at a quantity of 0.71 μg/assay point. • 1. [^125]-Ghrelin (PerkinElmer, #NEX-388); final concentration: 0.0070-0.0085 nM • 2. […] Multiscreen Harvest plates-GF/C (Millipore, #MAHFC1H60) • 4. Deep-well polypropylene titer plate (Beckman Coulter, #267006) • 5. TopSeal-A (PerkinElmer, #6005185) • 6. Bottom seal (Millipore, #MATAH0P00) • 7. MicroScint-0 (PerkinElmer, #6013611) • 8. Binding Buffer: 25 mM Hepes (pH 7.4), 1 mM CaCl2, 5 mM MgCl2, 2.5 mM EDTA, 0.4% BSA
Competition experiments were performed in a 300 μl filtration assay format. • 1. 220 μL of membranes diluted in binding buffer • 2. 40 μL of compound diluted in binding buffer • 3.
Compounds were provided frozen on dry ice at a stock concentration of 10 mM diluted in 100% DMSO and stored at −80° C. until the day of testing. On the test day, compounds were allowed to thaw at rt overnight and then diluted in assay buffer according to the desired test concentrations. Under these conditions, the maximal final DMSO concentration in the assay was 0.1%.
In deep-well plates, 220 μL of diluted cell membranes (final concentration: 0.71 μg/well) were combined with 40 μL of either binding buffer (total binding, N=5), 1 μM ghrelin (non-specific binding, N=3) or the appropriate concentration of test compound N=2 for each test concentration). […] Plates were sealed with TopSeal-A, vortexed gently and incubated at rt for 30 min. The reaction was arrested by filtering samples through Multiscreen Harvest plates (pre-soaked in 0.5% polyethyleneimine) using a Tomtec Harvester, washed 9 times with 500 μL of cold 50 mM Tris-HCl (pH 7.4, 4° C.), and then plates were air-dried in a fumehood for 30 min. A bottom seal was applied to the plates prior to the addition of 25 μL of MicroScint-0 to each well. Plates were than sealed with TopSeal-A and counted for 30 sec per well on a TopCount Microplate Scintillation and Luminescence Counter (PerkinElmer) using a count delay of 60 sec. Results were expressed as counts per minute (cpm).
Data were analyzed by GraphPad Prism (GraphPad Software, San Diego, Calif.) using a variable slope non-linear regression analysis.
Dmax values were calculated using the following formula: […]
where total and non-specific binding represent the cpm obtained in the absence or presence of 1 μM ghrelin, respectively.

Sequence of ghrelin receptor (Q92847 whole entry): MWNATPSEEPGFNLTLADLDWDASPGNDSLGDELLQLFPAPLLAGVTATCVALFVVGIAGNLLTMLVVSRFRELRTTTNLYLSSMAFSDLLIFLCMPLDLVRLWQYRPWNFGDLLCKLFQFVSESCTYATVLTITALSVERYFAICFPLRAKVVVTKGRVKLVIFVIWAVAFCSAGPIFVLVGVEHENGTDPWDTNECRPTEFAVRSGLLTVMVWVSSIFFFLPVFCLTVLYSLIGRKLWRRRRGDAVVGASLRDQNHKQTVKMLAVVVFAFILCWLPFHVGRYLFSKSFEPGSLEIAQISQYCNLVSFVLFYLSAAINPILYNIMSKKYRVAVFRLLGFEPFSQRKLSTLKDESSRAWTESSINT
T1 sequence (Q92847 whole entry): as above

Work on `CCC(C)[C@@H]1NCCOc2ccccc2/C=C/CNC(=O)[C@@H](Cc2ccccc2)NC(=O)[C@H](C(C)O)N(C)C1=O` (some centres unmarked) [Compound 502] yielded an IC50 (ghrelin receptor) of 1 to 100 nM and a Ki [1] of 1 to 100 nM.
